Data on 31 compounds can be found in patent US20130261178A1, “PHENOXYPROPANOL DERIVATIVES AND THEIR USE IN TREATING CARDIAC AND CARDIOVASCULAR DISEASES” (priority 2010, published 2013).

One data set has as its target T1, human beta2-adrenoceptor (Homo sapiens, UniProt P07550).
T1 construct: expressed in transfected cells; host or cells: CHO cells
Put plainly: 3H-CGP12177 whole-cell binding, CHO cells expressing human beta2-adrenoceptor. To be noted: 3H-CGP 12177 whole cell binding, mean ± s.e.mean; for Kd: log KD, read-out: Beta 2 Log KD (converted). The source says: (§1) The selectivity of a ligand is given by the ratio of beta-1 to beta-2 KD.

The target of the next data set is T2, human beta3-adrenoceptor (Homo sapiens, UniProt P13945).
T2 construct: expressed in transfected cells; host or cells: CHO cells
Put plainly: 3H-CGP12177 whole-cell binding, CHO cells expressing human beta3-adrenoceptor. To be noted: 3H-CGP 12177 whole cell binding, log KD, mean ± s.e.mean, read-out: Beta 3 Log KD (converted).

The target of the next data set is beta1-adrenoceptor (Homo sapiens, UniProt P08588). Put plainly: 3H-CGP12177 whole-cell binding, CHO cells expressing human beta1-adrenoceptor. Set-up: expressed in transfected cells; host or cells: CHO cells. Conditions: 3H-CGP 12177 whole cell binding, mean ± s.e.mean; for Kd: log KD, read-out: Beta 1 Log KD (converted).
Description: as §1

T2 sequence (P13945 whole entry): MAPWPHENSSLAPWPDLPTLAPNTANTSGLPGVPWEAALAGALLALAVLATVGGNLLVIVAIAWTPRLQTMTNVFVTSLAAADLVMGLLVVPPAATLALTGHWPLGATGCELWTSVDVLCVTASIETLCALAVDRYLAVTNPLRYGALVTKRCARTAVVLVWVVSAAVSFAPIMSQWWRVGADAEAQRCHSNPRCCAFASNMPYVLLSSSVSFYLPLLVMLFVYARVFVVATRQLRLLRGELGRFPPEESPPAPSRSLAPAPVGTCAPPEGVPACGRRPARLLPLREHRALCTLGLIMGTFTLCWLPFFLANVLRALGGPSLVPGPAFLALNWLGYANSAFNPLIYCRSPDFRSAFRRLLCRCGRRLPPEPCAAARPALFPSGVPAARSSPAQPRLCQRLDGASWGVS
Chain of beta1-adrenoceptor (P08588 whole entry): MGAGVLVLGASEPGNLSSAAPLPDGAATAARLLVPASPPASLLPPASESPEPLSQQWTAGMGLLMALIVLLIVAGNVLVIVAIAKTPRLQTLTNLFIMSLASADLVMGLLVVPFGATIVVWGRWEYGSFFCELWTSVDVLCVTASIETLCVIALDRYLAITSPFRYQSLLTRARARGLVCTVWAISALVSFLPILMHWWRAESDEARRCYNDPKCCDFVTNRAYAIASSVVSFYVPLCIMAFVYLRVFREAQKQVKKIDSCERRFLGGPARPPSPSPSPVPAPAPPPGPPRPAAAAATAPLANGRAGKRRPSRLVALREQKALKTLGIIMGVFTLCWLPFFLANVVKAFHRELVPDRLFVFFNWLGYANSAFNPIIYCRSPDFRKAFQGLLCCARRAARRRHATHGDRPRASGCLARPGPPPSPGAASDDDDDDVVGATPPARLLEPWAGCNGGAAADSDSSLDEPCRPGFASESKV
T1 sequence (P07550 whole entry): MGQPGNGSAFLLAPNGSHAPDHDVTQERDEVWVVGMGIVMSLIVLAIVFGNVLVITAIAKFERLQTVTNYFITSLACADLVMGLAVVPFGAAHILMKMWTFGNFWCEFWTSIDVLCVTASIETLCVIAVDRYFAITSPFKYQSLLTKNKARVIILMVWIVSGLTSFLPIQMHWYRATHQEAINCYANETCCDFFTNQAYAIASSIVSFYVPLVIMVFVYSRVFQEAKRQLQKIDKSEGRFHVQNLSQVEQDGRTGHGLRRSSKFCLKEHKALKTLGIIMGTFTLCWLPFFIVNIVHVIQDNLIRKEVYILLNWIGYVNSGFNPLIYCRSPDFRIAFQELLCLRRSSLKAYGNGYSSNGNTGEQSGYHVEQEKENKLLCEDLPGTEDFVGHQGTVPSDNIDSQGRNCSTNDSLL

`O=C(NCCNCC(O)COc1ccc(OCCOC2CCCC2)cc1)Nc1cccc(C(F)(F)F)c1` (centres unmarked) [47r]: the melting point (commonly the temperature of the solid-liquid transition) fell in the range of 96 to 98 °C. For the same compound, the “Beta 2 Log KD” value at human beta2-adrenoceptor was −5.86 ± 0.06. Also, the dissociation constant (Kd) (in general, a measure of binding affinity in units of concentration) on human beta3-adrenoceptor is 11500 nM. Further, the “Beta 1 Log KD” value at beta1-adrenoceptor is reported as −7.77 ± 0.06.

As for `O=C(NCCNCC(O)COc1ccc(OCCOC2CCCC2)cc1)Nc1ccccc1C(F)(F)F` (centres unmarked) [47q], the melting point is 128 to 130 °C. Also, the “Beta 2 Log KD” value at human beta2-adrenoceptor is listed as −5.84 ± 0.02. At human beta3-adrenoceptor, the Kd is 24000 nM. For the same compound, on beta1-adrenoceptor, the “Beta 1 Log KD” value is −6.94 ± 0.01.

Consider `O=C(NCCNCC(O)COc1ccc(OCCOC2CCCC2)cc1)c1ccccc1F` (centres unmarked) [54g], for which the melting point lay within 75 to 76 °C. Further, the dissociation constant Kd at human beta2-adrenoceptor was 1740 nM. Besides, the Kd at human beta3-adrenoceptor is 3090 nM. Also, the Kd on beta1-adrenoceptor was 204 nM.

Compound `COc1ccccc1NC(=O)NCCNCC(O)COc1ccc(OCCOC2CCCC2)cc1` (centres unmarked) [47e] yielded a melting point of 78 to 83 °C. In addition, the “Beta 2 Log KD” value on human beta2-adrenoceptor is on record as −5.93 ± 0.02. Besides, at human beta3-adrenoceptor, the equilibrium dissociation constant (Kd) was 13800 nM. Further, the “Beta 1 Log KD” value on beta1-adrenoceptor is recorded as −7.02 ± 0.04.

`COc1cccc(NC(=O)NCCNCC(O)COc2ccc(OCCOC3CCCC3)cc2)c1` (centres unmarked) [47f] had a melting point of 103 to 110 °C. At human beta2-adrenoceptor, the “Beta 2 Log KD” value is recorded as −6.05 ± 0.03. Further, the Kd on human beta3-adrenoceptor is 17400 nM. Further, at beta1-adrenoceptor, the “Beta 1 Log KD” value was −7.76 ± 0.03.

Compound `O=C(NCCNCC(O)COc1ccc(OCCOC2CCCC2)cc1)Nc1ccccc1Cl` (centres unmarked) [47k] returned a melting point of 99 to 103 °C. For the same compound, the dissociation constant Kd on human beta3-adrenoceptor is 18600 nM. Moreover, the “Beta 1 Log KD” value on beta1-adrenoceptor is given as −7.11 ± 0.03.

In turn, `O=C(NCCNCC(O)COc1ccc(OCCOC2CCCC2)cc1)Nc1ccc(F)cc1` (centres unmarked) [47j] returned a melting point of 130 to 133 °C. For the same compound, the “Beta 2 Log KD” value on human beta2-adrenoceptor is −5.92 ± 0.09. Further, the dissociation constant Kd at human beta3-adrenoceptor was 24500 nM. For the same compound, on beta1-adrenoceptor, the “Beta 1 Log KD” value is −7.70 ± 0.04.

On to `OC(CNCCOc1ccccc1)COc1ccc(OCCOC2CCCC2)cc1` (centres unmarked) [compound 48, 1-(2-Phenoxyethylamino)-3-(4-(2-(cyclopentyloxy)ethoxy)phenoxy)propan-2-ol], for which the melting point was in the range of 155 to 157 °C. Moreover, the equilibrium dissociation constant (Kd) at human beta2-adrenoceptor is 912 nM. Moreover, the Kd at human beta3-adrenoceptor was 4470 nM. The Kd on beta1-adrenoceptor is 34.7 nM.

`Cc1ccccc1NC(=O)NCCNCC(O)COc1ccc(OCCOC2CCCC2)cc1` (centres unmarked) [47b]: the melting point fell in the range of 114 to 115 °C. Also, on human beta2-adrenoceptor, the “Beta 2 Log KD” value is given as −6.27 ± 0.02. Besides, the Kd at human beta3-adrenoceptor is 17400 nM. Moreover, on beta1-adrenoceptor, the “Beta 1 Log KD” value is −7.33 ± 0.03.

Compound `Cc1ccc(NC(=O)NCCNCC(O)COc2ccc(OCCOC3CCCC3)cc2)cc1` (centres unmarked) [47d] displayed a melting point of 142 to 144 °C. On human beta3-adrenoceptor, the Kd is 22900 nM. Moreover, the “Beta 1 Log KD” value on beta1-adrenoceptor was −7.76 ± 0.04.

On to `O=C(NCCNCC(O)COc1ccc(OCCOC2CCCC2)cc1)Nc1ccc(Cl)cc1` (centres unmarked) [47m], for which the melting point is 133 to 140 °C. The “Beta 2 Log KD” value at human beta2-adrenoceptor was −5.91 ± 0.86. Further, at human beta3-adrenoceptor, the Kd is 13500 nM. The “Beta 1 Log KD” value on beta1-adrenoceptor was −7.95 ± 0.05.

Compound `COc1ccc(NC(=O)NCCNCC(O)COc2ccc(OCCOC3CCCC3)cc2)cc1` (centres unmarked) [47g] gave a melting point of 121 to 125 °C. The “Beta 2 Log KD” value on human beta2-adrenoceptor was −5.86 ± 0.04. Besides, the Kd on human beta3-adrenoceptor was 20000 nM. Moreover, the “Beta 1 Log KD” value at beta1-adrenoceptor is −7.80 ± 0.04.

Consider `O=C(NCCNCC(O)COc1ccc(OCCOC2CCCC2)cc1)Nc1ccccc1` (centres unmarked) [47a], for which the melting point is 109 to 115 °C. In addition, the dissociation constant Kd on human beta2-adrenoceptor was 3020 nM. Further, the Kd at human beta3-adrenoceptor was 24000 nM. In addition, the dissociation constant (Kd) at beta1-adrenoceptor is 12.6 nM.

For the compound `O=C(NCCNCC(O)COc1ccc(OCCOC2CCCC2)cc1)c1cccc(F)c1` (centres unmarked) [54h], the melting point is 85 to 86 °C. Further, on human beta2-adrenoceptor, the Kd is 550 nM. Moreover, at human beta3-adrenoceptor, the Kd was 1120 nM. Also, the dissociation constant (Kd) at beta1-adrenoceptor was 74.1 nM.

For the compound `O=S(=O)(Cc1ccccc1)NCCNCC(O)COc1ccc(OCCOC2CCCC2)cc1` (centres unmarked) [compound 53, N-(2-(3-(4-(2-(Cyclopentyloxy)ethoxy)phenoxy)-2-hydroxypropylamino)ethyl)-benzylsulfonamide], the Kd at human beta2-adrenoceptor was 933 nM; at human beta3-adrenoceptor, 19100 nM; at beta1-adrenoceptor, 25.7 nM.

Consider `O=C(NCCNCC(O)COc1ccc(OCCOC2CCCC2)cc1)c1cccc(O)c1` (centres unmarked) [54e], for which the Kd on human beta2-adrenoceptor is 282 nM; at human beta3-adrenoceptor, 1100 nM; on beta1-adrenoceptor, 30.9 nM.

Compound `O=C(NCCNCC(O)COc1ccc(OCCOC2CCCC2)cc1)Nc1ccccc1F` (centres unmarked) [47h] gave a melting point of 115 to 117 °C. Moreover, on human beta2-adrenoceptor, the “Beta 2 Log KD” value was −5.94 ± 0.04. On human beta3-adrenoceptor, the Kd was 21400 nM. Besides, the “Beta 1 Log KD” value on beta1-adrenoceptor was −7.82 ± 0.03.

`O=C(NCCNCC(O)COc1ccc(OCCOC2CCCC2)cc1)Nc1ccc(F)c(F)c1` (centres unmarked) [54a, 1-(2-(3-(4-(2-(Cyclopentyloxy)ethoxy)phenoxy)-2-hydroxypropylamino)ethyl)-3-(3,4-difluorophenyl)urea]: the melting point was 113 to 115 °C. Also, the Kd at human beta2-adrenoceptor was 1320 nM. At human beta3-adrenoceptor, the dissociation constant (Kd) was 8910 nM. Also, the Kd on beta1-adrenoceptor is 9.55 nM.

Turning to `O=C(Cc1ccccc1)NCCNCC(O)COc1ccc(OCCOC2CCCC2)cc1` (centres unmarked) [compound 49, N-(2-(3-(4-(2-(Cyclopentyloxy)ethoxy)phenoxy)-2-hydroxypropylamino)ethyl)-2-phenylacetamide Hydroformate], the Kd at human beta2-adrenoceptor was 53.7 nM; on human beta3-adrenoceptor, 4370 nM; on beta1-adrenoceptor, 3.8 nM.

In the case of `O=C(Cc1ccc(O)cc1)NCCNCC(O)COc1ccc(OCCOCC2CC2)cc1` (centres unmarked) [46i, N-(2-(3-(4-(2-(cyclopropylmethoxy)ethoxy)phenoxy)-2 hydroxypropylamino)ethyl)-2-(4-hydroxyphenyl)acetamide], the figures for the Kd on human beta2-adrenoceptor, on human beta3-adrenoceptor and at beta1-adrenoceptor were 933 nM, 3890 nM and 17 nM, respectively.

With `O=C(NCCNCC(O)COc1ccc(OCCOC2CCCC2)cc1)Nc1ccc(Br)cc1` (centres unmarked) [47p], the melting point lay in the range of 148 to 150 °C. For the same compound, the “Beta 2 Log KD” value at human beta2-adrenoceptor is −5.86 ± 0.04. Also, on human beta3-adrenoceptor, the Kd was 9330 nM. Moreover, the “Beta 1 Log KD” value on beta1-adrenoceptor is given as −7.77 ± 0.04.

For `CCOCCOc1ccc(OCC(O)CNCCNC(=O)Cc2ccccc2O)cc1` (centres unmarked) [46g, N-(2-(3-(4-(2-ethoxyethoxy)phenoxy)-2-hydroxypropylamino)ethyl)-2-(2-hydroxyphenyl)acetamide], the figures for the Kd at human beta2-adrenoceptor, at human beta3-adrenoceptor and at beta1-adrenoceptor were 537 nM, 10000 nM and 77.6 nM, respectively.

In turn, `O=C(NCCNCC(O)COc1ccc(OCCOC2CCCC2)cc1)Nc1cccc(Br)c1` (centres unmarked) [47o] returned a melting point of 120 to 122 °C. The dissociation constant (Kd) at human beta3-adrenoceptor was 10200 nM. The “Beta 1 Log KD” value at beta1-adrenoceptor was −7.92 ± 0.05.

As to `Cc1cccc(NC(=O)NCCNCC(O)COc2ccc(OCCOC3CCCC3)cc2)c1` (centres unmarked) [47c], at human beta2-adrenoceptor, the “Beta 2 Log KD” value is on record as −6.06 ± 0.03. Further, the dissociation constant Kd at human beta3-adrenoceptor was 17400 nM. Also, the “Beta 1 Log KD” value at beta1-adrenoceptor is recorded as −8.04 ± 0.04.

In turn, `O=C(NCCNCC(O)COc1ccc(OCCOC2CCCC2)cc1)Nc1ccc(O)cc1` (centres unmarked) [47v] returned a melting point of 135 to 138 °C. In addition, the “Beta 2 Log KD” value at human beta2-adrenoceptor is −5.45 ± 0.10. Also, the dissociation constant Kd at human beta3-adrenoceptor was 8320 nM. Besides, the Kd on beta1-adrenoceptor is 6.92 nM.

Turning to `O=C(NCCNCC(O)COc1ccc(OCCOC2CCCC2)cc1)c1ccc(F)cc1` (centres unmarked) [54i], the melting point lay within 99 to 100 °C. The Kd on human beta2-adrenoceptor is 363 nM. The Kd on human beta3-adrenoceptor was 2040 nM. Also, the dissociation constant Kd at beta1-adrenoceptor is 27.5 nM.

As for `O=C(NCCNCC(O)COc1ccc(OCCOC2CCCC2)cc1)c1ccccc1O` (centres unmarked) [54d], the Kd at human beta2-adrenoceptor was 501 nM; at human beta3-adrenoceptor it was 4570 nM; at beta1-adrenoceptor, 32.4 nM.

As to `O=C(NCCNCC(O)COc1ccc(OCCOC2CCCC2)cc1)Nc1ccc(C(F)(F)F)cc1` (centres unmarked) [47s], the melting point fell in the range of 134 to 136 °C. On human beta2-adrenoceptor, the “Beta 2 Log KD” value was −5.76 ± 0.04. Further, at human beta3-adrenoceptor, the Kd was 11700 nM. In addition, the “Beta 1 Log KD” value on beta1-adrenoceptor was −7.70 ± 0.04.

As for `O=C(NCCNCC(O)COc1ccc(OCCOC2CCCC2)cc1)Nc1cccc(F)c1` (centres unmarked) [47i], the melting point was 108 to 110 °C. Further, the “Beta 2 Log KD” value on human beta2-adrenoceptor is −6.54 ± 0.02. Besides, the Kd on human beta3-adrenoceptor was 18600 nM. At beta1-adrenoceptor, the “Beta 1 Log KD” value is listed as −8.17 ± 0.03.

`O=C(NCCNCC(O)COc1ccc(OCCOCCc2ccc(F)cc2)cc1)Nc1ccc(O)cc1` (centres unmarked) [46b]: the melting point fell in the range of 113 to 115 °C. In addition, the Kd on human beta2-adrenoceptor was 1020 nM. Moreover, the Kd on human beta3-adrenoceptor is 1120 nM. In addition, on beta1-adrenoceptor, the “Beta 1 Log KD” value is given as −8.50 ± 0.07.

On to `OC(CNCCNC(=S)Nc1ccccc1)COc1ccc(OCCOC2CCCC2)cc1` (centres unmarked) [compound 52, 1-(2-(3-(4-(2-(Cyclopentyloxy)ethoxy)phenoxy)-2-hydroxypropylamino)ethyl)-3-phenylthiourea], for which the Kd at human beta2-adrenoceptor was 692 nM; on human beta3-adrenoceptor it was 7080 nM; on beta1-adrenoceptor, 81.3 nM.
